Molecular target: T1, human GRP receptor (BB2) (Homo sapiens, UniProt P30550)
T1 construct: expressed in transfected cells
Assay: BB2 binding assay ([125I][Tyr4]bombesin, CHO-K1 cell membranes)
Method: In the following experiments, measurement of BB1 and BB2 binding was as follows. […] The final pellet was resuspended in assay buffer to a final cell concentration of 1.5 × 10^5/mL. […] Nonspecific binding was defined by 1µM bombesin. […] Radioactivity bound was determined using a gamma counter.
All competition data was analysed using nonlinear regression utilizing iterative curve-plotting procedures in Prism® (GraphPad Software Inc., San Diego, USA).

[1] = Table 5, N-terminal urethane derivatives
[2] = Table 7, N-terminal sulfonamide derivatives

T1 sequence (P30550 whole entry): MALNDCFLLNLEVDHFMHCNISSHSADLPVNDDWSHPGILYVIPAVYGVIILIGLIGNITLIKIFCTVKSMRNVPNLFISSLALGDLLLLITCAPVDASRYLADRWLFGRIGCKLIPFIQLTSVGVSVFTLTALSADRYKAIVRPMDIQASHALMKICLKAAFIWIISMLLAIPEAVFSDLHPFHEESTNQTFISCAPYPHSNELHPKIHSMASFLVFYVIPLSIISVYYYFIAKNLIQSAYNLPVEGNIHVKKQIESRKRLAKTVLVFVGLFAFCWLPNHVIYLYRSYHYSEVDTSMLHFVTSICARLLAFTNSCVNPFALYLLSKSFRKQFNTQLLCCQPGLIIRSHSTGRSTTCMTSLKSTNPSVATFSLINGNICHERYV

Row | SMILES | IC50 [2] [µM] | also measured
1 | CN(C)c1ccccc1C(=O)N[C@@](C)(Cc1c[nH]c2ccccc12)C(=O)NCC1(c2ccccn2)CCCCC1 [Example 48, C-Dimethylamino-N-{(S)-2-(1H-indol-3-yl)-1-methyl-1-[(1-pyridin-2-yl-cyclohexyl-methyl)-carbamoyl]-ethyl}-benzamide] |  | IC50 (Table 3, N-acyl derivatives): > 10 µM
2 | C[C@@](Cc1c[nH]c2ccccc12)(NC(=O)c1ccccn1)C(=O)NCC1(c2ccccn2)CCCCC1 [Example 57, Pyridine-2-carboxylic acid {(S)-2-(1H-indol-3-yl)-1-methyl-1-[(1-pyridin-2-yl-cyclohexylmethyl)-carbamoyl]-ethyl}-amide] |  | IC50 (Table 3, N-acyl derivatives): > 10 µM
3 | C[C@@](Cc1c[nH]c2ccccc12)(NC(=O)c1ccoc1)C(=O)NCC1(c2ccccn2)CCCCC1 [Example 59, Furan-3-carboxylic acid {(S)-2-(1H-indol-3-yl)-1-methyl-1-[(1-pyridin-2-yl-cyclohexylmethyl)-carbamoyl]-ethyl}-amide] |  | IC50 (Table 3, N-acyl derivatives): > 10 µM
4 | C[C@@](Cc1c[nH]c2ccccc12)(NC(=O)c1ccco1)C(=O)NCC1(c2ccccn2)CCCCC1 [Example 60, Furan-2-carboxylic acid {(S)-2-(1H-indol-3-yl)-1-methyl-1-[(1-pyridin-2-yl-cyclohexylmethyl)-carbamoyl]-ethyl}-amide] |  | IC50 (Table 3, N-acyl derivatives): > 10 µM
5 | Cc1cc(C(=O)N[C@@](C)(Cc2c[nH]c3ccccc23)C(=O)NCC2(c3ccccn3)CCCCC2)no1 [Example 62, 5-Methyl-isoxazole-3-carboxylic acid {(S)-2-(1H-indol-3-yl)-1-methyl-1-[(1-pyridin-2-yl-cyclohexylmethyl)-carbamoyl]-ethyl}-amide] |  | IC50 (Table 3, N-acyl derivatives): > 10 µM
6 | C[C@@](Cc1c[nH]c2ccccc12)(NC(=O)c1cnc2ccccc2n1)C(=O)NCC1(c2ccccn2)CCCCC1 [Example 78, Quinoxaline-2-carboxylic acid {(S)-2-(1H-indol-3-yl)-1-methyl-1-[(1-pyridin-2-yl-cyclohexylmethyl)-carbamoyl]-ethyl}-amide] |  | IC50 (Table 3, N-acyl derivatives): > 10 µM
7 | C[C@@](Cc1c[nH]c2ccccc12)(NC(=O)OCc1ccc(Cl)cc1Cl)C(=O)NCC1(c2ccccn2)CCCCC1 [Example 104, {(S)-2-(1H-Indol-3-yl)-1-methyl-1-[(1-pyridin-2-yl-cyclohexylmethyl)-carbamoyl]-ethyl}-carbamic acid 2,4-dichloro-benzyl ester] |  | IC50 [1]: > 10 µM
8 | C[C@@](Cc1c[nH]c2ccccc12)(NC(=O)OCc1ccc2ncccc2c1)C(=O)NCC1(c2ccccn2)CCCCC1 [Example 110, {(S)-2-(1H-Indol-3-yl)-1-methyl-1-[(1-pyridin-2-yl-cyclohexylmethyl)-carbamoyl]-ethyl}-carbamic acid quinolin-6-ylmethyl ester] |  | IC50 [1]: > 10 µM
9 | CN(C)c1cccc2c(S(=O)(=O)N[C@@](C)(Cc3c[nH]c4ccccc34)C(=O)NCC3(c4ccccn4)CCCCC3)cccc12 [Example 117, (S)-2-(5-Dimethylamino-naphthalene-1-sulfonylamino)-3-(1H-indol-3-yl)-2-methyl-N-(1-pyridin-2-yl-cyclohexylmethyl)-propionamide] | > 10 | 
10 | C[C@@](Cc1c[nH]c2ccccc12)(NS(=O)(=O)c1ccc2ccccc2c1)C(=O)NCC1(c2ccccn2)CCCCC1 [Example 118, (S)-3-(1H-Indol-3-yl)-2-methyl-2-(naphthalene-2-sulfonylamino)-N-(1-pyridin-2-yl-cyclohexylmethyl)-propionamide] | > 10 | 
11 | C[C@@](Cc1c[nH]c2ccccc12)(NS(=O)(=O)c1cccs1)C(=O)NCC1(c2ccccn2)CCCCC1 [Example 119, (S)-3-(1H-Indol-3-yl)-2-methyl-N-(1-pyridin-2-yl-cyclohexylmethyl)-2-(thiophene-2-sulfonylamino)-propionamide] |  | BB2 IC50 [2]: Ia
12 | C[C@@](Cc1c[nH]c2ccccc12)(NS(=O)(=O)c1ccc([N+](=O)[O-])cc1)C(=O)NCC1(c2ccccn2)CCCCC1 [Example 123, (S)-3-(1H-Indol-3-yl)-2-methyl-2-(4-nitro-benzenesulfonylamino)-N-(1-pyridin-2-yl-cyclohexylmethyl)-propionamide] | > 10 | 
13 | C[C@@](Cc1c[nH]c2ccccc12)(NS(=O)(=O)c1ccc(C(F)(F)F)cc1)C(=O)NCC1(c2ccccn2)CCCCC1 [Example 127, (S)-3-(1H-Indol-3-yl)-2-methyl-N-(1-pyridin-2-yl-cyclohexylmethyl)-2-(4-trifluoromethyl-benzenesulfonylamino)-propionamide] | > 10 | 

Further lines, with some results ahead:

Row | IC50 [2] [µM] | SMILES | also measured
14 | > 10 | Cc1ccc(S(=O)(=O)N[C@@](C)(Cc2c[nH]c3ccccc23)C(=O)NCC2(c3ccccn3)CCCCC2)cc1 [Example 112, (S)-3-(1H-Indol-3-yl)-2-methyl-N-(1-pyridin-2-yl-cyclohexylmethyl)-2-(toluene-4-sulfonylamino)-propionamide] | 
15 | > 10 | C[C@@](Cc1c[nH]c2ccccc12)(NS(=O)(=O)c1ccccc1F)C(=O)NCC1(c2ccccn2)CCCCC1 [Example 114, (S)-2-(2-Fluorobenzenesulfonylamino)-3-(1H-indol-3-yl)-2-methyl-N-(1-pyridin-2-yl-cyclohexylmethyl)-propionamide] | 
16 | > 10 | C[C@@](Cc1c[nH]c2ccccc12)(NS(=O)(=O)c1ccc(Cl)c(Cl)c1)C(=O)NCC1(c2ccccn2)CCCCC1 [Example 125, (S)-2-(3,4-Dichloro-benzenesulfonylamino)-3-(1H-indol-3-yl)-2-methyl-N-(1-pyridin-2-yl-cyclohexylmethyl)-propionamide] | 
17 | > 10 | C[C@@](Cc1c[nH]c2ccccc12)(NS(=O)(=O)c1ccc(Cl)s1)C(=O)NCC1(c2ccccn2)CCCCC1 [Example 128, (S)-2-(5-Chloro-thiophene-2-sulfonylamino)-3-(1H-indol-3-yl)-2-methyl-N-(1-pyridin-2-yl-cyclohexylmethyl)-propionamide] | 
18 | > 10 | COc1ccc(S(=O)(=O)N[C@@](C)(Cc2c[nH]c3ccccc23)C(=O)NCC2(c3ccccn3)CCCCC2)cc1OC [Example 132, (S)-2-(3,4-Dimethoxy-benzenesulfonylamino)-3-(1H-indol-3-yl)-2-methyl-N-(1-pyridin-2-yl-cyclohexylmethyl)-propionamide] | 
19 | > 10 | C[C@@](Cc1c[nH]c2ccccc12)(NS(=O)(=O)c1ccc(C#N)cc1)C(=O)NCC1(c2ccccn2)CCCCC1 [Example 133, (S)-2-(4-Cyano-benzenesulfonylamino)-3-(1H-indol-3-yl)-2-methyl-N-(1-pyridin-2-yl-cyclohexylmethyl)-propionamide] | 
20 | > 10 | C[C@@](Cc1c[nH]c2ccccc12)(NS(=O)(=O)c1ccccc1C#N)C(=O)NCC1(c2ccccn2)CCCCC1 [Example 134, (S)-2-(2-Cyano-benzenesulfonylamino)-3-(1H-indol-3-yl)-2-methyl-N-(1-pyridin-2-yl-cyclohexylmethyl)-propionamide] | 
21 | > 10 | Cc1nn(C)c(Cl)c1S(=O)(=O)N[C@@](C)(Cc1c[nH]c2ccccc12)C(=O)NCC1(c2ccccn2)CCCCC1 [Example 135, (S)-2-(5-Chloro-1,3-dimethyl-1H-pyrazole-4-sulfonylamino)-3-(1H-indol-3-yl)-2-methyl-N-(1-pyridin-2-yl-cyclohexylmethyl)-propionamide] | 
22 | > 10 | Cc1noc(C)c1S(=O)(=O)N[C@@](C)(Cc1c[nH]c2ccccc12)C(=O)NCC1(c2ccccn2)CCCCC1 [Example 136, (S)-2-(3,5-Dimethyl-isoxazole-4-sulfonylamino)-3-(1H-indol-3-yl)-2-methyl-N-(1-pyridin-2-yl-cyclohexylmethyl)-propionamide] | 
